Test results taken from patent EP1935887A1, “Heterocyclic substituted carbonyl derivatives and their use as dopamine D3 receptor ligands” (Aventis Pharmaceuticals Inc., priority 2001, dated 2002).
pKi: −log10 of the molar value.

What follows are molecules tested against T1, Cloned Human Dopamine D3 Receptors (Homo sapiens, UniProt P35462) (assay: [N-Methyl-3H]Spiroperidol binding to cloned human dopamine D3 receptors). Conditions: Table 2; unit inferred; read-out: d3Ki.
T1 construct: expressed in transfected cells; membrane homogenate
T1 sequence (P35462 whole entry): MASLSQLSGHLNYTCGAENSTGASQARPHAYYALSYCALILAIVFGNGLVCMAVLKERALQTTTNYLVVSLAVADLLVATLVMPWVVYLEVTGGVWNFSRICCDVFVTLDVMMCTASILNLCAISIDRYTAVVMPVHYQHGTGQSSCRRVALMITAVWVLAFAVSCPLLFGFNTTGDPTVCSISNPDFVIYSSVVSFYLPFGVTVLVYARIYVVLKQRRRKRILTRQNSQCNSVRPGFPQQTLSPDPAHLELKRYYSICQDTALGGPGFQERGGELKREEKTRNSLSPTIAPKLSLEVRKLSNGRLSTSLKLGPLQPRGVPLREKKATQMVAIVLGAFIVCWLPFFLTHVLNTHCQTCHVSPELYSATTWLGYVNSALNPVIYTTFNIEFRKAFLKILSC
From the text: [N-Methyl-^3H]Spiroperidol Binding to Cloned Human Dopamine D3 Receptors
This assay measures the in vitro activity of compounds on cloned human dopamine (D3) receptors and predicts the direct dopamine-blocking properties of putative neuropsychiatric agents at human dopamine D3 receptors.
The D3 gene was isolated from a human striatal cDNA library (Stratagene). The gene was sequenced and sub-cloned into the expression vector RC/RSV (Invitrogen). CHO (Chinese Hamster Ovary) cells were stably transfected with 10 µg of the D3/RSV plasmid using the DOTAP method from Boehringer Mannheim and 72 clones that were G418 resistant were isolated. Using mRNA and binding displacement data a single high expressing clone was identified. This clone was then grown in large batches for the purpose of developing a 96 well format assay.
• 1. One plate (10 cm) with approximately 2-3 million D3 cells per plate is incubated with 1 ml of Trypsin-EDTA at room temperature for -2 min or until cells have lifted off plates. Four ml of Ham's F12 + 10% Fetal Bovine Serum + 1% Penicillin/Streptomycin + G418 (400 µg/ml) medium are added to resuspend cells and 1 ml of this is added to each large plate (15 cm) containing 19 ml of the same medium as mentioned above. • 2. The 5 large plates are incubated at 37°C + 5% CO2 for - 3 days or until the cells are confluent. • 3. After these plates are confluent, they are split into 10 large plates. Medium is aspirated off, 2 ml of Trypsin-EDTA are added to each plate and plates are incubated at RT for 2 min or until cells have lifted off the plate. Eight ml of the F12 medium (same medium as #1 above) are added to each plate (10 ml total) to resuspend the cells and 5 ml are transferred to the 2 new plates containing 15 ml of the F12 media. • 4. The 10 large plates are incubated at 37°C + 5% CO2 for ∼ 2 days or until the cells are confluent. • 5. The 10 large plates are split into 60 large plates (using Trypsin-EDTA as #3 except 4 ml of F12 medium are added to resuspend cells and 1 ml is aliquoted to 6 new plates containing 19 ml of F12 medium each). • 6. Plates are incubated at 37°C + 5% CO2 for - 3 days or until cell are confluent. • 7. The 60 large plates are then split into 60 roller bottles (100-150 million cells/bottle). Medium is aspirated off , 2 ml of Trypsin-EDTA are added to each plate and incubated at RT for -2 minutes or until cells have lifted off plates. Eight ml of F12 medium are added to each plate to resuspend cells and the entire 10 ml are added to 1 roller bottle containing 90 ml of the F12 medium. • 8. The 60 roller bottles are immediately placed on their sides and transferred to the roller bottle incubator. They are incubated at 37°C + 5% CO2 for ~ 3-5 days. Cells are spun at 30-40% motor speed in the Forma incubator. • 9. Medium is poured off and cells are washed 2X in PBS. • 10. Cells are then scraped off in 20 ml of PBS and the bottles are rinsed again with 5 ml of PBS to remove any remaining cells. Cells are stored on ice before membrane prepration. • 11. The yield for 60 D3 roller bottles has varied from - 260-500 mg. Note: All tissue culture reagents are from Gibco-BRL.
The cells are harvested into 250 ml centrifuge tubes with 100 volumes of cold phosphate buffered saline (PBS) and spun down (1200xG for 10 min at 4°C). The medium is removed and 100 ml PBS are added to each centrifuge tube, cells are resuspened and spun down again. The PBS is removed and the final pellet is homogenized in an appropriate volume of 10% DMSO with a polytron on ice at a medium setting.
A 200 µl sample membrane homogenate is added to 200 µl of 1% SDS, vortexed and allowed to stand for 5 min. Aliquots (25, 50 and 100 µl) of this mixture are assayed in duplicate following the standard Bio-Rad DC protein assay protocol (kit catalog number 500-0112) and using reagent S. Absorbance readings are made at 750 nm (note: the most accurate protein OD readings are between 0.1-0.5 units). […]

Row | pKi | Structure (SMILES)
1 | 9.09 | C[C@H]1CC[C@H](NC(=O)[C@@H]2C[C@H]2CN2CCN(c3ccccc3C#N)CC2)CC1 [compound 817040]
2 | 9.11 | CCC1CCC(NC(=O)C2CC2CN2CCN(c3cccc(Cl)c3Cl)CC2)CC1 (centres unmarked) [compound 817041]
3 | 9.21 | CCC1CCC(NC(=O)C2CC2CN2CCN(c3cc(Cl)ccc3OC)CC2)CC1 (centres unmarked) [compound 817042]
4 | 8.14 | CCC1CCC(NC(=O)C2CC2CN2CCN(c3ccc(C(F)(F)F)cc3)CC2)CC1 (centres unmarked) [compound 817043]
5 | 8.96 | CC[C@H]1CC[C@H](NC(=O)[C@@H]2C[C@H]2CN2CCN(c3ccccc3C#N)CC2)CC1 [compound 817044]
6 | 8.27 | Cc1ccc(N2CCN(C[C@@H]3C[C@H]3C(=O)N[C@H]3CC[C@H](C)CC3)CC2)cc1C [compound 817045]
7 | 8.72 | CCC1CCC(NC(=O)C2CC2CN2CCN(c3ccc(C)c(C)c3)CC2)CC1 (centres unmarked) [compound 817046]
8 | 8.54 | O=C(N[C@H]1CC[C@H](C(=O)N2CCCC2)CC1)[C@@H]1C[C@H]1CN1CCN(c2csc3cc(C(F)(F)F)ccc23)CC1 [compound 817047]
9 | 8.55 | CCN(CC)C(=O)[C@H]1CC[C@H](NC(=O)[C@@H]2C[C@H]2CN2CCN(c3csc4cc(C(F)(F)F)ccc34)CC2)CC1 [compound 817048]
10 | 8.15 | COCCNC(=O)C1CCC(NC(=O)C2CC2CN2CCN(c3csc4cc(C(F)(F)F)ccc34)CC2)CC1 (centres unmarked) [compound 817049]
11 | 8.67 | C[C@]1(O)CC[C@H](NC(=O)[C@@H]2C[C@H]2CN2CCN(c3csc4cc(C(F)(F)F)ccc34)CC2)CC1 [compound 817050]
12 | 8.46 | C[C@]1(O)CC[C@@H](NC(=O)[C@@H]2C[C@H]2CN2CCN(c3csc4cc(C(F)(F)F)ccc34)CC2)CC1 [compound 817051]
13 | 8.66 | CC[C@H]1CC[C@H](NC(=O)[C@@H]2C[C@H]2CN2CCN(c3ccc(Cl)c(Cl)c3)CC2)CC1 [compound 817090]
14 | 8.40 | CC[C@H]1CC[C@H](NC(=O)[C@@H]2C[C@H]2CN2CCN(c3ccc(C)cc3C)CC2)CC1 [compound 817091]
15 | 8.22 | CC[C@H]1CC[C@H](NC(=O)[C@@H]2C[C@H]2CN2CCN(c3ncc(C(F)(F)F)cc3Cl)CC2)CC1 [compound 817093]
16 | 8.05 | COc1ccc(N2CCN(C[C@@H]3C[C@H]3C(=O)N[C@H]3CC[C@H](C)CC3)CC2)c(OC)c1 [compound 817094]
17 | 9.17 | C[C@H]1CC[C@H](NC(=O)[C@@H]2C[C@H]2CN2CCN(c3cc(Cl)cc(Cl)c3)CC2)CC1 [compound 817095]
18 | 8.04 | CC[C@H]1CC[C@H](NC(=O)[C@@H]2C[C@H]2CN2CCN(c3ccc(OC)cc3OC)CC2)CC1 [compound 817096]
19 | 9.20 | CCC1CCC(NC(=O)C2CC2CN2CCN(c3cc(Cl)cc(Cl)c3)CC2)CC1 (centres unmarked) [compound 817097]
20 | 8.97 | C[C@H]1CC[C@H](NC(=O)[C@@H]2C[C@H]2CN2CCN(c3cccc4[nH]ccc34)CC2)CC1 [compound 817098]
21 | 8.96 | C[C@H]1CC[C@H](NC(=O)[C@@H]2C[C@H]2CN2CCN(c3cccc4ccccc34)CC2)CC1 [compound 817099]
22 | 9.12 | CCC1CCC(NC(=O)C2CC2CN2CCN(c3cccc4[nH]ccc34)CC2)CC1 (centres unmarked) [compound 817100]
23 | 9.26 | CC[C@H]1CC[C@H](NC(=O)[C@@H]2C[C@H]2CN2CCN(c3cccc4ccccc34)CC2)CC1 [compound 817101]

Row | pKi | Structure (SMILES)
24 | 8.11 | CC[C@H]1CC[C@H](NC(=O)[C@@H]2C[C@H]2CN2CCN(c3cc(C)ccc3C)CC2)CC1 [compound 817102]
25 | 7.90 | CCC1CCC(NC(=O)C2CC2CN2CCCN(c3cc(C(F)(F)F)nc(C(C)(C)C)n3)CC2)CC1 (centres unmarked) [compound 817260]
26 | 8.03 | CC1CCC(NC(=O)C2CC2CN2CCCN(c3cc(C(F)(F)F)nc(C(C)(C)C)n3)CC2)CC1 (centres unmarked) [compound 817261]
27 | 8.76 | CCCc1cc(N2CCCN(C[C@@H]3C[C@H]3C(=O)N[C@H]3CC[C@H](CC)CC3)CC2)nc(C(C)(C)C)n1 [compound 817272]
28 | 8.52 | CCCc1cc(N2CCCN(C[C@@H]3C[C@H]3C(=O)N[C@H]3CC[C@H](C)CC3)CC2)nc(C(C)(C)C)n1 [compound 817273]
29 | 8.76 | C[C@H]1CC[C@H](NC(=O)[C@@H]2C[C@H]2CN2CCN(c3ncccc3Cl)CC2)CC1 [compound 817565]
30 | 8.61 | CC[C@H]1CC[C@H](NC(=O)[C@@H]2C[C@H]2CN2CCN(c3ncccc3Cl)CC2)CC1 [compound 817566]
31 | 7.09 | CC1CCC(NC(=O)C2CC2CN2CCCN(c3cnccn3)CC2)CC1 (centres unmarked) [compound 817567]
32 | 7.44 | CC[C@H]1CC[C@H](NC(=O)[C@@H]2C[C@H]2CN2CCCN(c3cnccn3)CC2)CC1 [compound 817568]
33 | 8.26 | CCC1(O)CCC(NC(=O)[C@@H]2C[C@H]2CN2CCN(c3csc4cc(C(F)(F)F)ccc34)CC2)CC1 (some centres unmarked) [compound 818497]
34 | 7.59 | CC1CCC(NC(=O)C2CC2CN2CCCN(c3ccccn3)CC2)CC1 (centres unmarked) [compound 818498]
35 | 7.66 | CC[C@H]1CC[C@H](NC(=O)[C@@H]2C[C@H]2CN2CCN(c3csc4cc(C(F)(F)F)ccc34)CC2)CC1 [compound 818499]
36 | 8.02 | CCC1CCC(NC(=O)C2CC2CN2CCN(c3noc4ccsc34)CC2)CC1 (centres unmarked) [compound 818574]
37 | 7.42 | CN(C(=O)CCCCN1CCN(c2csc3cc(F)ccc23)CC1)c1ccccc1 [compound 822129]
38 | 7.29 | CCN(C(=O)CCCCN1CCN(c2csc3cc(F)ccc23)CC1)c1ccc2c(c1)OCO2 [compound 822130]
39 | 7.21 | COc1ccc(N(C)C(=O)CCCCN2CCN(c3csc4cc(F)ccc34)CC2)cc1 [compound 822131]
40 | 7.74 | CCN(C(=O)CCCCN1CCN(c2csc3cc(F)ccc23)CC1)c1c(C)cccc1O [compound 822132]
41 | 7.77 | CN(C(=O)CCCCN1CCN(c2csc3cc(F)ccc23)CC1)c1ccc(Cl)cc1 [compound 822133]
42 | 7.09 | O=C(CCCCN1CCN(c2csc3cc(F)ccc23)CC1)Nc1cccc2ccccc12 [compound 822134]
43 | 8.44 | O=C(CCCCN1CCN(c2csc3cc(F)ccc23)CC1)Nc1ccccc1F [compound 822135]
44 | 6.68 | CC(C)(C)c1ccc(NC(=O)CCCCN2CCN(c3csc4cc(F)ccc34)CC2)cc1 [compound 822136]
45 | 7.44 | O=C(CCCCN1CCN(c2csc3cc(F)ccc23)CC1)Nc1cccc(Oc2ccccc2)c1 [compound 822137]
46 | 7.09 | CN(C(=O)CCCCN1CCN(c2csc3cc(F)ccc23)CC1)c1cccc2ccccc12 [compound 822138]

Same assay, conditions: d3Ki, Table 2; unit inferred

Row | Structure (SMILES) | pKi
47 | C[C@H]1CC[C@H](NC(=O)[C@H]2C[C@@H]2CN2CCN(c3noc4ccsc34)CC2)CC1 [compound 817893] | 6.61
48 | CC1CCC(NC(=O)C2CC2CN2CCN(c3noc4ccsc34)CC2)CC1 (centres unmarked) [compound 818427] | 8.22

Same assay, conditions: read-out: d3Ki

Row | pKi | Structure (SMILES)
49 | 8.84 | Cc1ccccc1N1CCN(CC2CC2C(=O)NC2CCC(C)CC2)CC1 (centres unmarked) [compound 817478]
50 | 8.51 | CC[C@H]1CC[C@H](NC(=O)[C@@H]2C[C@H]2CN2CCN(c3ncc(C(F)(F)F)cc3Cl)CC2)CC1 [compound 817480]
51 | 8.20 | CC[C@H]1CC[C@H](NC(=O)[C@@H]2C[C@H]2CN2CCN(c3cc(C)ccc3C)CC2)CC1 [compound 817570]
52 | 8.55 | CC[C@H]1CC[C@H](NC(=O)[C@@H]2C[C@H]2CN2CCN(c3ccc(C)cc3C)CC2)CC1 [compound 817571]
53 | 9.15 | CCC1CCC(NC(=O)C2CC2CN2CCN(c3ccccc3C)CC2)CC1 (centres unmarked) [compound 818675]
